Where a name gives a salt, the structure may show the parent alone.

The melting point is the temperature of the solid-liquid transition.

Molecule `CN1C(=O)c2c(Oc3ccccc3OS(=O)(=O)C(F)(F)F)cc3[nH]c4ccccc4c3c2C1=O` (as salt: methanesulphonate) [Example 38, 2-[(2-Methyl-1,3-dioxo-1,2,3,6-tetrahydropyrrolo[3,4-c]carbazol-4-yl)oxy]phenyl trifluoromethanesulphonate] showed a melting point of 214 °C.
Take `Cn1c(=O)c2c3oc4ccccc4oc3c3c(oc4ccccc4n3C(=O)Oc3ccccc3)c2c1=O` [Example 1, Phenyl 7-methyl-6,8-dioxo-7,8-dihydro[1,4]benzodioxino[2,3-a]-pyrrolo[3,4-c]phenoxazine-15(6H)carboxylate]: the melting point was determined as 130 °C.
Turning to `CN(C)CCn1c(=O)c2c3oc4ccccc4[nH]c3c3oc4ccccc4oc3c2c1=O` [Example 2, 7-[2-(Dimethylamino)ethyl][1,4]benzodioxino[2,3-a]pyrrolo[3,4-c]-phenoxazine-6,8(7H,15H)-dione], the melting point is 150 °C.
Next, `Cn1c(=O)c2c3oc4ccccc4oc3c3c(oc4cccnc4n3C(=O)Oc3ccccc3)c2c1=O` [Example 3, Phenyl 7-methyl-6,8-dioxo-7,8-dihydro[1,4]benzodioxino[2,3-e]-pyrido[2′,3′:5,6][1,4]oxazino[3,2-g]isoindole-15(6H)-carboxylate]: over 250 °C.
As to `CN(C)CCn1c(=O)c2c3oc4cccnc4[nH]c3c3oc4ccccc4oc3c2c1=O` [Example 4, 7-[2-(Dimethylamino)ethyl][1,4]benzodioxino[2,3-e]pyrido[2′,3′:5,6]-[1,4]oxazino[3,2-g]isoindole-6,8(7H,15H)-dione], the melting point was 150 °C (dec.).
On to `Cn1c(=O)c2c3oc4ccccc4oc3c3c(c4ccccc4n3C(=O)OC(C)(C)C)c2c1=O` [Example 5, tert-Butyl 7-methyl-6,8-dioxo-7,8-dihydro[1,4]benzodioxino[2,3-a]-pyrrolo[3,4-c]carbazole-13(6H)-carboxylate], for which the melting point is 189 °C (dec.).
Take `CN(C)CCn1c(=O)c2c3oc4ccccc4oc3c3[nH]c4ccccc4c3c2c1=O` [Example 7, 7-[2-(Dimethylamino)ethyl][1,4]benzodioxino[2,3-a]pyrrolo[3,4-c]-carbazole-6,8(7H,13H)-dione]: the melting point is 298 °C (dec.).
Next, `Cn1c(=O)c2c3oc4ccccc4oc3c3[nH]c4ccc(F)cc4c3c2c1=O` [Example 11, 10-Fluoro-7-methyl[1,4]benzodioxino[2,3-a]pyrrolo[3,4-c]carbazole-6,8(7H,13H)-dione]: over 355 °C; `CN(C)CCn1c(=O)c2c3oc4ccccc4oc3c3[nH]c4ccc(F)cc4c3c2c1=O` [Example 12, 7-[2-(Dimethylamino)ethyl]-10-fluoro[1,4]benzodioxino[2,3-a]-pyrrolo[3,4-c]carbazole-6,8(7H,13H)-dione]: 337 °C (dec.); `Cn1c(=O)c2c3oc4ccccc4oc3c3[nH]c4cc(F)ccc4c3c2c1=O` [Example 13, 11-Fluoro-7-methyl[1,4]benzodioxino[2,3-a]pyrrolo[3,4-c]carbazole-6,8(7H,13H)-dione]: over 360 °C.
Consider `CN(C)CCn1c(=O)c2c3oc4ccccc4oc3c3[nH]c4cc(F)ccc4c3c2c1=O` [Example 14, 7-[2-(Dimethylamino)ethyl]-11-fluoro[1,4]benzodioxino[2,3-a]-pyrrolo[3,4-c]carbazole-6,8(7H,13H)-dione], for which the melting point is 301 °C (dec.).
In the case of `Cn1c(=O)c2c3oc4ccccc4oc3c3[nH]c4ccc(O)cc4c3c2c1=O` [Example 18, 10-Hydroxy-7-methyl[1,4]benzodioxino[2,3-a]pyrrolo[3,4-c]-carbazole-6,8(7H,13H)-dione], the melting point is over 350 °C.
For `CN(C)CCn1c(=O)c2c3oc4ccccc4oc3c3[nH]c4ccc(OCc5ccccc5)cc4c3c2c1=O` [Example 19, 10-(Benzyloxy)-7-[2-(dimethylamino)ethyl][1,4]benzodioxino[2,3-a]-pyrrolo[3,4-c]carbazole-6,8(7H,13H)-dione], the melting point is 254 °C (dec.).
For the molecule `CN(C)CCn1c(=O)c2c3oc4ccccc4oc3c3[nH]c4ccc(O)cc4c3c2c1=O` [Example 20, 7-[2-(Dimethylamino)ethyl]-10-hydroxy[1,4]benzodioxino[2,3-a]-pyrrolo[3,4-c]carbazole-6,8(7H,13H)-dione], the melting point is over 360 °C.
As for `Cn1c(=O)c2c3oc4ccccc4oc3c3[nH]c4cc(O)ccc4c3c2c1=O` [Example 22, 11-Hydroxy-7-methyl[1,4]benzodioxino[2,3-a]pyrrolo[3,4-c]-carbazole-6,8(7H,13H)-dione], the melting point is 360 °C.
For the molecule `CN(C)CCn1c(=O)c2c3oc4ccccc4oc3c3[nH]c4cc(OCc5ccccc5)ccc4c3c2c1=O` [Example 23, 11-(Benzyloxy)-7-[2-(dimethylamino)ethyl][1,4]benzodioxino[2,3-a]-pyrrolo[3,4-c]carbazole-6,8(7H,13H)-dione], the melting point was 262 °C (dec.).
On to `CN(C)CCn1c(=O)c2c3oc4ccccc4oc3c3[nH]c4cc(O)ccc4c3c2c1=O` [Example 24, 7-[2-(Dimethylamino)ethyl]-11-hydroxy[1,4]benzodioxino[2,3-a]-pyrrolo[3,4-c]carbazole-6,8(7H,13H)-dione], for which the melting point is over 360 °C.
`CC(C)(C)OC(=O)n1c2ccc(OCc3ccccc3)cc2c2c3c(=O)[nH]c(=O)c3c3oc4ccccc4oc3c21` [Example 25, tert-Butyl 10-(benzyloxy)-6,8-dioxo-7,8-dihydro[1,4]benzo-dioxino[2,3-a]pyrrolo[3,4-c]carbazole-13(6H)-carboxylate] showed a melting point of over 304 °C.
For the molecule `CC(C)(C)OC(=O)n1c2cc(OCc3ccccc3)ccc2c2c3c(=O)[nH]c(=O)c3c3oc4ccccc4oc3c21` [Example 27, tert-Butyl 11-(benzyloxy)-6,8-dioxo-7,8-dihydro[1,4]benzo-dioxino[2,3-a]pyrrolo[3,4-c]carbazole-13(6H)-carboxylate], the melting point was 199 °C.
Next, `O=c1[nH]c(=O)c2c1c1oc3ccccc3oc1c1[nH]c3cc(O)ccc3c12` [Example 28, 11-Hydroxy[1,4]benzodioxino[2,3-a]pyrrolo[3,4-c]carbazole-6,8(7H,13H)-dione]: over 340 °C; `CC(C)(C)OC(=O)n1c2cc(OCc3ccccc3)ccc2c2c3c(c(Oc4ccccc4O)cc21)C(=O)NC3=O` [Example 30, tert-Butyl 8-(benzyloxy)-4-(2-hydroxyphenoxy)-1,3-dioxo-2,3-dihydropyrrolo[3,4-c]carbazole-6(1H)-carboxylate]: 198 °C; `CN1C(=O)c2c(Oc3ccccc3O)cc3c(c2C1=O)c1cc(OCc2ccccc2)ccc1n3C(=O)OC(C)(C)C` [Example 31, tert-Butyl 9-(benzyloxy)-4-(2-hydroxyphenoxy)-2-methyl-1,3-dioxo-2,3-dihydropyrrolo[3,4-c]carbazole-6(1H)-carboxylate]: 170 °C.
Consider `CN1C(=O)c2c(Oc3ccccc3O)cc3[nH]c4ccc(O)cc4c3c2C1=O` [Example 32, 9-Hydroxy-4-(2-hydroxyphenoxy)-2-methylpyrrolo[3,4-c]-carbazole-1,3(2H,6H)-dione], for which the melting point was 277 °C (dec.).
Take `CN1C(=O)c2c(Oc3ccccc3O)cc3c(c2C1=O)c1ccccc1n3C(=O)OC(C)(C)C` [Example 33, tert-Butyl 4-(2-hydroxyphenoxy)-2-methyl-1,3-dioxo-2,3-dihydropyrrolo[3,4-c]carbazole-6(1H)-carboxylate]: the melting point is 182 °C (dec.).
In turn, `COc1ccccc1Oc1cc2c(c3c1C(=O)N(C)C3=O)c1ccccc1n2C(=O)OC(C)(C)C` [Example 34, tert-Butyl 4-(2-methoxyphenoxy)-2-methyl-1,3-dioxo-2,3-dihydropyrrolo[3,4-c]carbazole-6(1H)-carboxylate] yielded a melting point of over 333 °C.
Next, `COc1ccccc1Oc1cc2[nH]c3ccccc3c2c2c1C(=O)N(C)C2=O` [Example 35, 4-(2-Methoxyphenoxy)-2-methylpyrrolo[3,4-c]carbazole-1,3(2H,6H)-dione]: 228 °C; `CN1C(=O)c2c(Oc3ccccc3OS(=O)(=O)C(F)(F)F)cc3c(c2C1=O)c1ccccc1n3C(=O)OC(C)(C)C` [Example 37, tert-Butyl 2-methyl-1,3-dioxo-4-(2-{[(trifluoromethyl)sulphonyl]-oxy}phenoxy)-2,3-dihydropyrrolo[3,4-c]carbazole-6(1H)-carboxylate]: 182 °C.
Molecule `CN1C(=O)c2c(Oc3ccccc3O)cc3c(c2C1=O)c1ccc(OCc2ccccc2)cc1n3C(=O)OC(C)(C)C` [Example 39, tert-Butyl 8-(benzyloxy)-4-(2-hydroxyphenoxy)-2-methyl-1,3-dioxo-2,3-dihydropyrrolo[3,4-c]carbazole-6(1H)-carboxylate] displayed a melting point of 191 °C.
For `CN1C(=O)c2c(Oc3ccccc3OS(=O)(=O)C(F)(F)F)cc3c(c2C1=O)c1ccc(OCc2ccccc2)cc1n3C(=O)OC(C)(C)C` [Example 40, tert-Butyl 8-(benzyloxy)-2-methyl-1,3-dioxo-4-(2-{[(trifluoro-methyl)sulphonyl]oxy}phenoxy)-2,3-dihydropyrrolo[3,4-c]-carbazole-6(1H)-carboxylate], the melting point was 186 °C.
On to `CN1C(=O)c2c(Oc3ccccc3O)cc3[nH]c4cc(O)ccc4c3c2C1=O` [Example 41, 8-Hydroxy-4-(2-hydroxyphenoxy)-2-methylpyrrolo[3,4-c]-carbazole-1,3(2H,6H)-dione], for which the melting point is 200 °C.

For the origin of these results see US7202255B2, “Substituted [1,4] benzodioxino[2,3-e] isoindole derivatives, method for preparing and pharmaceutical compositions containing same” (Les Laboratoires Servier, priority 2002, dated 2007).
